Consider 11 compounds from ChEMBL document CHEMBL1201862, “PubChem BioAssay data set” (2004).

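Briefly, cells in 96-well plates were exposed to five compound concentrations for 48 h, and endpoints were estimated by linear interpolation. GI50: concentration for 50% inhibition of growth.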 Active and inactive are the calls of the source. Rule as the data show it: active = GI50 up to about 1.1 µM and inactive = higher.

Test systems include MDA-MB-231; Malme-3M; HOP-92; Hs-578T; SF-268; IGROV-1; OVCAR-5; TK-10; SR; EKVX; 786-0; SK-MEL-28; K562; SK-MEL-5; T47D; A549; HCC 2998; RPMI-8226; NCI-H226; SNB-75.
Holding throughout (assay): NCI anticancer screen, dose series, 48 h

On to `CCN(CC)Cc1ccc(Nc2c3ccccc3nc3ccccc23)cc1`, for which the GI50 is 1.66 µM (inactive) with MDA-MB-231; 1.36 µM (inactive) in the experiment on Malme-3M; 2.79 µM (inactive) in the experiment with HOP-92; 4.86 µM (inactive) in the experiment with Hs-578T; 2.82 µM (inactive) with SF-268; 3 µM (inactive) in the experiment on IGROV-1. Moreover, the GI50 in the experiment with OVCAR-5 is 2.17 µM (inactive); in the experiment with TK-10 it was 6.14 µM (inactive); in the experiment with SR it was 2.17 µM (inactive); with EKVX it was 3.3 µM (inactive); in the experiment on 786-0, 1.67 µM (inactive); in the experiment with SK-MEL-28, 1.61 µM (inactive). Further, the GI50 with K562 was 1.6 µM (inactive); with SK-MEL-5, 1.71 µM (inactive); with T47D, 4.16 µM (inactive); in the experiment with A549, 1.28 µM (inactive); in the experiment with HCC 2998 it was 1.08 µM (active).
Turning to `Cc1ccc(NC(=O)NC(=O)c2ccc([N+](=O)[O-])cc2[N+](=O)[O-])cc1Oc1ncc(Cl)cn1`, the GI50 in the experiment on MDA-MB-231 is 0.614 µM (active); in the experiment on Malme-3M, 0.0925 µM (active); in the experiment on Hs-578T, 0.05 µM (active); in the experiment on SF-268 it was 0.713 µM (active); in the experiment on IGROV-1, 1.13 µM (inactive); in the experiment with OVCAR-5, 0.828 µM (active). Moreover, the GI50 with RPMI-8226 is 0.292 µM (active); with NCI-H226 it was 0.449 µM (active); with SNB-75, 0.0752 µM (active); in the experiment with TK-10 it was 14.4 µM (inactive); in the experiment with SR it was 0.409 µM (active); with EKVX, > 10 µM (inactive). Further, the GI50 in the experiment on 786-0 is 0.466 µM (active); in the experiment on SK-MEL-28, 2.9 µM (inactive); in the experiment with K562, 0.275 µM (active); with SK-MEL-5 it was 0.195 µM (active); in the experiment on T47D, 12.7 µM (inactive); with A549, 0.542 µM (active). The GI50 with HCC 2998 is 0.271 µM (active).
For the compound `CC(=O)OC12CC(C(F)(F)F)(C(F)(F)F)OC1(OC(C)=O)CC(C(F)(F)F)(C(F)(F)F)O2` (stereo not given), the GI50 with MDA-MB-231 was 6.34 µM (inactive); in the experiment with Malme-3M it was 4.86 µM (inactive); in the experiment with Hs-578T, 13.3 µM (inactive); in the experiment with SF-268, 1.58 µM (inactive); in the experiment with IGROV-1, 1.41 µM (inactive); in the experiment with OVCAR-5, 9.29 µM (inactive). For the same compound, the GI50 is 0.7 µM (active) in the experiment on RPMI-8226; 6.17 µM (inactive) with NCI-H226; 11.1 µM (inactive) with SNB-75; 8.28 µM (inactive) in the experiment with TK-10; 2.55 µM (inactive) in the experiment on SR; 2.9 µM (inactive) with 786-0. Further, the GI50 was 4.54 µM (inactive) with SK-MEL-28; 0.612 µM (active) in the experiment on K562; 0.385 µM (active) in the experiment on SK-MEL-5; 1.34 µM (inactive) in the experiment on T47D; 1.26 µM (inactive) in the experiment on A549; 9.08 µM (inactive) in the experiment on HCC 2998.
Regarding `COC12OC3(C4OC41)C(C(=O)O[C@H]3CO[Si](C)(C)C(C)(C)C)C2S(=O)(=O)c1ccccc1` (stereo not given in full), the GI50 in the experiment with MDA-MB-231 is > 4.65 µM (inactive); in the experiment on Malme-3M it was > 41.8 µM (inactive); in the experiment with HOP-92, 3.27 µM (inactive); in the experiment on Hs-578T, 4.65 µM (inactive); with OVCAR-5, > 4.65 µM (inactive); in the experiment on RPMI-8226, 1.67 µM (inactive). For the same compound, the GI50 with NCI-H226 is > 100 µM (inactive); with TK-10, 4.06 µM (inactive); in the experiment with SR, 2.63 µM (inactive); with EKVX it was > 4.65 µM (inactive); in the experiment with 786-0, 2.89 µM (inactive); in the experiment with SK-MEL-28, 3.48 µM (inactive). For the same compound, the GI50 in the experiment on K562 is 1.6 µM (inactive); in the experiment on T47D, > 83.9 µM (inactive); in the experiment with A549 it was > 4.65 µM (inactive); in the experiment with HCC 2998 it was > 100 µM (inactive).
As to `Clc1ccc(C2=NN=C3C(c4ccccc4)=Nc4ccccc4N3C2)cc1`, the GI50 in the experiment on MDA-MB-231 was 32.7 µM (inactive); in the experiment on Malme-3M, 5.45 µM (inactive); with HOP-92 it was > 25.1 µM (inactive); with Hs-578T, 2.09 µM (inactive); in the experiment with SF-268, 2.88 µM (inactive); with IGROV-1, 7.87 µM (inactive). For the same compound, the GI50 with RPMI-8226 was 2.63 µM (inactive); with NCI-H226 it was 6.52 µM (inactive); with TK-10 it was 3.89 µM (inactive); in the experiment with SR, 1.08 µM (active); in the experiment on EKVX, 4.97 µM (inactive); in the experiment on 786-0 it was 5.28 µM (inactive). In addition, the GI50 in the experiment with SK-MEL-28 was 37.5 µM (inactive); in the experiment with K562, 2.88 µM (inactive); in the experiment on SK-MEL-5, 3.27 µM (inactive); with T47D it was 1.45 µM (inactive); in the experiment on A549, 13.5 µM (inactive); in the experiment with HCC 2998, 17.9 µM (inactive).
With `Cn1nc(-c2ccccc2)c2c(-c3ccccc3)c3cc(Cl)ccc3nc21`, the GI50 was > 100 µM (inactive) in the experiment on MDA-MB-231; > 100 µM (inactive) in the experiment on Malme-3M; > 76.4 µM (inactive) with Hs-578T; > 100 µM (inactive) in the experiment on SF-268; > 100 µM (inactive) with IGROV-1; > 100 µM (inactive) in the experiment with OVCAR-5. In addition, the GI50 in the experiment with RPMI-8226, with NCI-H226, with SNB-75, in the experiment with TK-10, with SR and with EKVX was > 100 µM (inactive) throughout. Further, the GI50 in the experiment on 786-0, in the experiment on SK-MEL-28, with K562, in the experiment on SK-MEL-5, with T47D and with A549 was > 100 µM (inactive) each time. For the same compound, the GI50 with HCC 2998 is > 100 µM (inactive).
For `c1ccc2c(c1)cc1ccc3cccc4ccc2c1c34`, the GI50 with MDA-MB-231, with HOP-92, in the experiment with Hs-578T, with SF-268, with IGROV-1 and with RPMI-8226 was > 100 µM (inactive) in each case. Besides, the GI50 in the experiment on NCI-H226 was > 100 µM (inactive); in the experiment on SNB-75, > 100 µM (inactive); in the experiment with TK-10, > 100 µM (inactive); in the experiment on SR, > 100 µM (inactive); in the experiment with EKVX, 9.04 µM (inactive); in the experiment with 786-0 it was > 100 µM (inactive). The GI50 with SK-MEL-28, in the experiment on K562, in the experiment on SK-MEL-5, in the experiment on T47D, with A549 and in the experiment on HCC 2998 was > 100 µM (inactive) throughout.
With `COC(=O)c1ccc2c(c1)CC1(C2)Cc2cc3c(cc2C1)CCC3`, the GI50 with MDA-MB-231 was > 100 µM (inactive); in the experiment with Malme-3M it was 79.6 µM (inactive); in the experiment on HOP-92 it was > 100 µM (inactive); with Hs-578T, > 100 µM (inactive); in the experiment on SF-268, > 100 µM (inactive); in the experiment on IGROV-1, > 100 µM (inactive). Further, the GI50 in the experiment on OVCAR-5, in the experiment on RPMI-8226, in the experiment with SNB-75, with TK-10, with SR and with EKVX was > 100 µM (inactive) throughout. Further, the GI50 in the experiment with 786-0, with SK-MEL-28, in the experiment with K562, with SK-MEL-5, with T47D and in the experiment on A549 was > 100 µM (inactive) in each case. Further, in the experiment on HCC 2998, the GI50 is > 100 µM (inactive).
For the compound `Cc1cc(C)cc(Nc2nnc3n2S(=O)(=O)c2cc(C)c(Cl)cc2S3)c1`, the GI50 with MDA-MB-231 is 4.73 µM (inactive); in the experiment on Malme-3M it was 1.87 µM (inactive); with Hs-578T, 2.94 µM (inactive); with SF-268, 3.81 µM (inactive); in the experiment on IGROV-1, 5.43 µM (inactive); in the experiment on OVCAR-5, 5.35 µM (inactive). For the same compound, the GI50 in the experiment on RPMI-8226 is 2.88 µM (inactive); in the experiment with NCI-H226, 3.07 µM (inactive); in the experiment with SNB-75 it was 3.87 µM (inactive); with TK-10, 10.7 µM (inactive); in the experiment on SR, 2.09 µM (inactive); in the experiment with EKVX, 11.2 µM (inactive). The GI50 in the experiment on 786-0 is 4.94 µM (inactive); in the experiment on SK-MEL-28 it was 17.6 µM (inactive); in the experiment with K562, 3.01 µM (inactive); in the experiment on SK-MEL-5 it was 5.92 µM (inactive); in the experiment with T47D, 5.69 µM (inactive); in the experiment with A549, 5.01 µM (inactive). For the same compound, the GI50 in the experiment on HCC 2998 is 4.8 µM (inactive).
For the compound `N#Cc1ncn(-c2ccccc2)c1N`, the GI50 in the experiment on MDA-MB-231, in the experiment on Malme-3M, with Hs-578T, with SF-268, with IGROV-1 and with OVCAR-5 was > 100 µM (inactive) in each case. Moreover, the GI50 with RPMI-8226, with NCI-H226, in the experiment on SNB-75, with TK-10, in the experiment on SR and in the experiment on EKVX was > 100 µM (inactive) each time. Besides, the GI50 in the experiment on 786-0, with SK-MEL-28, with K562, with SK-MEL-5, in the experiment on T47D and in the experiment on A549 was > 100 µM (inactive) throughout. Further, the GI50 in the experiment on HCC 2998 is > 100 µM (inactive).
On to `CCOC(=O)C1(C(=O)OCC)C[C@]23OCCC(=O)[C@H]2[C@H]2C(=O)OC(C)(C)O[C@]23C1`, for which the GI50 in the experiment on MDA-MB-231, in the experiment with Malme-3M, in the experiment on HOP-92, in the experiment with Hs-578T, in the experiment with SF-268 and in the experiment with IGROV-1 was > 100 µM (inactive) throughout. Further, the GI50 in the experiment on OVCAR-5, in the experiment on RPMI-8226, in the experiment with SNB-75, in the experiment on TK-10, in the experiment with SR and with EKVX was > 100 µM (inactive) throughout. For the same compound, the GI50 in the experiment on 786-0, in the experiment on SK-MEL-28, in the experiment with SK-MEL-5, in the experiment with T47D, in the experiment with A549 and in the experiment with HCC 2998 was > 100 µM (inactive) in each case.
